This is an account of results in patent US20110172147A1, “NEUROPEPTIDE-2 RECEPTOR (Y-2R) AGONISTS” (priority 2009, published 2011).

Molecules are shown by their SMILES.

In one assay the target is T1, hNPY2R (Homo sapiens, UniProt P49146).
T1 sequence (P49146 1-381): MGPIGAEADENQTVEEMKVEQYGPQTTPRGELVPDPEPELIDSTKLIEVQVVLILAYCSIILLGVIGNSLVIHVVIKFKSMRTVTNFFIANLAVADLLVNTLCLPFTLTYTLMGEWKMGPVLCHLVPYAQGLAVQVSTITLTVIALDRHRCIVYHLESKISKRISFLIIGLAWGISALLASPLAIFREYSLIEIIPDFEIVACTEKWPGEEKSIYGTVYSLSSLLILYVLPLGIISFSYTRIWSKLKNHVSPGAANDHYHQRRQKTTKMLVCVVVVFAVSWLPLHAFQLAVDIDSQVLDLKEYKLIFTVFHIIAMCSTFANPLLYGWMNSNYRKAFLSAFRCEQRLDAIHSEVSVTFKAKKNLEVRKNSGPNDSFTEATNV
Nature of the assay: CaFlux Assay (FLIPR), Y2R. It counts as cell-based. Also on record: expressed in transfected cells; host or cells: HEK-293 stably transfected with G protein chimera Gαqi9. The following applies: CaFlux (FLIPR), HEK-293 cells with Gαqi9 and human NPY2 receptor; read-out: Y2R EC50 (nM) FLIPR. The procedure, abridged:
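Intracellular calcium mobilisation was measured in HEK-293 cells engineered with Gαqi9 and the relevant receptor; responses were normalised as % of maximal positive-control signal.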
Regarding `CC[C@H](C)[C@H](NC(C)=O)C(=O)N[C@@H](CCCCNC(=O)CCOCCOCCOCCOCCOCCOCCOCCOCCOCCOCCOCCOCCOCCOCCOCCOCCOCCOCCOCCOCCOCCOCCOCCOC)C(=O)N1CCN(c2ccc3ncn(CC(=O)N[C@@H](CCCNC(=N)N)C(=O)N[C@@H](Cc4c[nH]cn4)C(=O)N[C@@H](Cc4ccc(O)cc4)C(=O)N[C@@H](CC(C)C)C(=O)N[C@@H](CC(N)=O)C(=O)N[C@@H](Cc4c[nH]c5ccccc45)C(=O)N[C@H](C(=O)N[C@H](C(=O)N[C@@H](CCCNC(=N)N)C(=O)N[C@@H](CCC(N)=O)C(=O)N(C)[C@@H](CCCNC(=N)N)C(=O)N[C@@H](Cc4ccc(O)cc4)C(N)=O)[C@@H](C)O)C(C)C)c(=O)c3c2)CC1` [Example 21], the EC50 was determined as 0.139 nM. On the same count and under the same terms, the value for `CCCCCCCCCCCCCCCCCCCC(=O)N[C@@H](CCS(=O)(=O)O)C(=O)N[C@@H](CCS(=O)(=O)O)C(=O)NCCCC[C@H](NC(=O)[C@@H](NC(=O)CCOCCOCCOCCOCCOCCOCCOCCOCCOCCOCCOCCOCCOCCOCCOCCOCCOCCOCCOCCOCCOCCOCCOCCOC)[C@@H](C)CC)C(=O)N1CCN(c2ccc3ncn(CC(=O)N[C@@H](CCCNC(=N)N)C(=O)NC(Cc4c[nH]cn4)C(=O)N[C@@H](Cc4ccc(O)cc4)C(=O)NC(CC(C)C)C(=O)N[C@@H](CC(N)=O)C(=O)NC(Cc4c[nH]c5ccccc45)C(=O)N[C@H](C(=O)N[C@H](C(=O)N[C@@H](CCCNC(=N)N)C(=O)NC(CCC(N)=O)C(=O)N(C)[C@@H](CCCNC(=N)N)C(=O)NC(Cc4ccc(O)cc4)C(N)=O)[C@@H](C)O)C(C)C)c(=O)c3c2)CC1` (stereo partly drawn) [Example 27] was 9.6 nM; that for `CCCCCCCCCCCCCCCCCCCC(=O)N[C@@H](CCS(=O)(=O)O)C(=O)N[C@@H](CCS(=O)(=O)O)C(=O)NCCCC[C@H](NC(=O)[C@@H](NC(=O)CCOCCOCCOCCOCCOCCOCCOCCOCCOCCOCCOCCOCCOCCOCCOCCOCCOCCOCCOCCOCCOCCOCCOCCOC)[C@@H](C)CC)C(=O)N1CCN(c2ccc3ncn(CC(=O)N[C@@H](CCCNC(N)=O)C(=O)NC(Cc4c[nH]cn4)C(=O)N[C@@H](Cc4ccc(O)cc4)C(=O)NC(CC(C)C)C(=O)N[C@@H](CC(N)=O)C(=O)NC(Cc4c[nH]c5ccccc45)C(=O)N[C@H](C(=O)N[C@H](C(=O)N[C@@H](CCCNC(=N)N)C(=O)NC(CCC(N)=O)C(=O)N(C)[C@@H](CCCNC(=N)N)C(=O)NC(Cc4ccc(O)cc4)C(N)=O)[C@@H](C)O)C(C)C)c(=O)c3c2)CC1` (stereo partly drawn) [Example 28] was 11.1 nM.

Take `CCCCCCCCCCCCCCCC(=O)N[C@@H](CCS(=O)(=O)O)C(=O)N[C@@H](CCS(=O)(=O)O)C(=O)NCCCC[C@H](NC(=O)[C@@H](NC(=O)CCOCCOCCOCCOCCOCCOCCOCCOCCOCCOCCOCCOCCOCCOCCOCCOCCOCCOCCOCCOCCOCCOCCOCCOC)[C@@H](C)CC)C(=O)N1CCN(c2ccc3ncn(CC(=O)N[C@@H](CCCNC(=N)N)C(=O)NC(Cc4c[nH]cn4)C(=O)N[C@@H](Cc4ccc(O)cc4)C(=O)NC(CC(C)C)C(=O)N[C@@H](CC(N)=O)C(=O)NC(Cc4c[nH]c5ccccc45)C(=O)N[C@H](C(=O)N[C@H](C(=O)N[C@@H](CCCNC(=N)N)C(=O)NC(CCC(N)=O)C(=O)N(C)[C@@H](CCCNC(=N)N)C(=O)NC(Cc4ccc(O)cc4)C(N)=O)[C@@H](C)O)C(C)C)c(=O)c3c2)CC1` (stereo partly drawn) [Example 29]: the EC50 came to 0.156 nM. Turning to `CCCCCCCCCCCCCCCCCCCC(=O)NCCCCCC(=O)N[C@H](C(=O)N[C@@H](CCCCNC(=O)CCOCCOCCOCCOCCOCCOCCOCCOCCOCCOCCOCCOCCOCCOCCOCCOCCOCCOCCOCCOCCOCCOCCOCCOC)C(=O)N1CCN(c2ccc3ncn(CC(=O)N[C@@H](CCCNC(=N)N)C(=O)N[C@@H](Cc4c[nH]cn4)C(=O)N[C@@H](Cc4ccc(O)cc4)C(=O)N[C@@H](CC(C)C)C(=O)N[C@@H](CC(N)=O)C(=O)N[C@@H](Cc4c[nH]c5ccccc45)C(=O)N[C@H](C(=O)N[C@H](C(=O)N[C@@H](CCCNC(=N)N)C(=O)N[C@@H](CCC(N)=O)C(=O)N(C)[C@@H](CCCNC(=N)N)C(=O)N[C@@H](Cc4ccc(O)cc4)C(N)=O)[C@@H](C)O)C(C)C)c(=O)c3c2)CC1)[C@@H](C)CC` [Example 35], the EC50 was 0.097 nM.

The assay is the same for the next values; noted with them: read-out: Y2R EC50 (nM) FLIPR; CaFlux (FLIPR), HEK-293 cells with Gαqi9 and human NPY2 receptor.
Take `CC[C@H](C)[C@H](NC(=O)[C@H](CCC(=O)O)NC(=O)[C@H](CCC(=O)O)NC(=O)CCCCCCCCCCCCCCC(=O)O)C(=O)N[C@@H](CCCCNC(=O)CCOCCOCCOCCOCCOCCOCCOCCOCCOCCOCCOCCOCCOCCOCCOCCOC)C(=O)N1CCN(c2ccc3ncn(CC(=O)N[C@@H](CCCNC(=N)N)C(=O)N[C@@H](Cc4c[nH]cn4)C(=O)N[C@@H](Cc4ccc(O)cc4)C(=O)N[C@@H](CC(C)C)C(=O)N[C@@H](CC(N)=O)C(=O)N[C@@H](Cc4c[nH]c5ccccc45)C(=O)N[C@H](C(=O)N[C@H](C(=O)N[C@@H](CCCNC(=N)N)C(=O)N[C@@H](CCC(N)=O)C(=O)N(C)[C@@H](CCCNC(=N)N)C(=O)N[C@@H](Cc4ccc(O)cc4)C(N)=O)[C@@H](C)O)C(C)C)c(=O)c3c2)CC1` [Example 54]: the concentration giving a half-maximal response (EC50) amounted to 292 nM.

The EC50 is the midpoint of the concentration-response curve.
